Values after ≈ are worked out from the molar mass of the structure shown. Blank lines part the entries; values can stand above or below the compound they belong to.
Experiments:
Cryptococcus neoformans [1] = assay: Antifungal activity against Cryptococcus neoformans ATCC 24067 assessed as inhibition of fungal growth incubated for 24 to 48 hrs by CLSI based broth microdilution method; format: functional; settings: time 24-48 hrs
[2] = Antifungal activity against Cryptococcus gattii ATCC 24065 assessed as inhibition of fungal growth incubated for 24 to 48 hrs by CLSI protocol based broth microdilution method; format: functional, Cryptococcus gattii VGI; settings: time 24-48 hrs
Candida albicans [3] = assay: Antifungal activity against Candida albicans SC5314 assessed as inhibition of fungal growth incubated for 24 to 48 hrs by CLSI protocol based broth microdilution method; format: functional; settings: time 24-48 hrs
Nakaseomyces glabratus = assay: Antifungal activity against Candida glabrata ATCC 2001 assessed as inhibition of fungal growth incubated for 24 to 48 hrs by CLSI protocol based broth microdilution method; format: functional; settings: time 24-48 hrs
Pichia kudriavzevii = assay: Antifungal activity against Candida krusei ATCC 20298 assessed as inhibition of fungal growth incubated for 24 to 48 hrs by CLSI protocol based broth microdilution method; format: functional; settings: time 24-48 hrs
Candida parapsilosis = assay: Antifungal activity against Candida parapsilosis ATCC 22019 assessed as inhibition of fungal growth incubated for 24 to 48 hrs by CLSI protocol based broth microdilution method; format: functional; settings: Lodderomyces parapsilosis, time 24-48 hrs
Candida tropicalis = assay: Antifungal activity against Candida tropicalis ATCC 750 assessed as inhibition of fungal growth incubated for 24 to 48 hrs by CLSI protocol based broth microdilution method; format: functional; settings: time 24-48 hrs
[Candida] auris = Antifungal activity against Candida auris COLO 01 assessed as inhibition of fungal growth incubated for 24 to 48 hrs by CLSI protocol based broth microdilution method; format: functional; settings: Candidozyma auris, time 24-48 hrs
[4] = Cytotoxicity against human PBMC cells assessed as inhibition of cell growth incubated for 24 to 48 hrs by MTT assay; format: toxicity, cell-based
Caco-2 = assay: Cytotoxicity against human Caco-2 cells assessed as reduction in cell viability at 10 to 40 microg/ml measured upto 12 hrs by MTT assay; format: functional; settings: dose 10-40 µg/ml, at 10 to 40 µg/mL
[5] = Apparent permeability across apical to basolateral side in human Caco-2 cells measured after 30 to 180 mins by HPLC-MS analysis; format: ADME, cell-based; settings: time 30-180 min
[6] = Apparent permeability across basolateral to apical side in human Caco-2 cells measured after 30 to 180 mins by HPLC-MS analysis; format: ADME, cell-based; settings: time 30-180 min
[7] = Efflux ratio of apparent permeability across basolateral to apical over apical to basolateral side in human Caco-2 cells measured after 30 to 180 mins by HPLC-MS analysis; format: ADME, cell-based; settings: time 30-180 min
Cryptococcus neoformans [8] = assay: Antifungal activity against Cryptococcus neoformans H99 infected in Tenebrio molitor larvae assessed as survival rate of larvae at 80 microg/ml measured after 24 hrs; format: functional
Cryptococcus neoformans [9] = assay: Antifungal activity against Cryptococcus neoformans assessed as inhibition of fungal growth; format: functional
[10] = Antifungal activity against Cryptococcus gattii VGI assessed as inhibition of fungal growth; format: functional
Candida albicans [11] = assay: Antifungal activity against Candida albicans assessed as inhibition of fungal growth; format: functional

SMILES: CCOC(=O)Cc1csc(N/N=C(\C)CCC(=O)O)n1
MIC (Cryptococcus neoformans [1]): 3.2 µM (≈ 0.958 µg/mL)
MIC [2]: 3.2 µM (≈ 0.958 µg/mL)
MIC (Candida albicans [3]): 3.2 µM (≈ 0.958 µg/mL)
MIC (Nakaseomyces glabratus): 52.2 µM (≈ 15.6 µg/mL)
MIC (Pichia kudriavzevii): 0.8 µM (≈ 0.239 µg/mL)
MIC (Candida parapsilosis): 1.6 µM (≈ 0.479 µg/mL)
MIC (Candida tropicalis): 0.8 µM (≈ 0.239 µg/mL)
MIC ([Candida] auris): 1.6 µM (≈ 0.479 µg/mL)
IC50 [4]: > 500 µM
Activity (Caco-2): >70%
Papp A→B [5]: 1.47 ×10⁻⁶ cm/s
Papp B→A [6]: 5.26 ×10⁻⁶ cm/s
efflux ratio [7]: 3.58
survival at 80 µg/mL (Cryptococcus neoformans [8]): 63%

SMILES: C(=N\Nc1nc(-c2ccccc2)cs1)/C1CCCCC1
MIC (Cryptococcus neoformans [9]): 0.9 µM (≈ 0.257 µg/mL)
MIC [10]: 0.9 µM (≈ 0.257 µg/mL)

SMILES: Cc1ccc(NC(=O)c2ccc(CN3CCN(C)CC3)cc2)cc1Nc1nccc(-c2cccnc2)n1 [IMATINIB]
IC50 [4]: 159 µM

SMILES: Nc1ccn([C@@H]2O[C@H](CO)[C@@H](O)[C@@H]2O)c(=O)n1 [CYTARABINE]
IC50 [4]: 181 µM

SMILES: CCOC(=O)Cc1csc(N/N=C\C2CCCCC2)n1
MIC (Cryptococcus neoformans [1]): 106 µM (≈ 31.3 µg/mL)
MIC [2]: 106 µM (≈ 31.3 µg/mL)
MIC (Candida albicans [3]): 52.9 µM (≈ 15.6 µg/mL)
MIC (Nakaseomyces glabratus): > 125 µM
MIC (Pichia kudriavzevii): 0.8 µM (≈ 0.236 µg/mL)
MIC (Candida parapsilosis): 52.9 µM (≈ 15.6 µg/mL)
MIC (Candida tropicalis): 6.6 µM (≈ 1.95 µg/mL)
MIC ([Candida] auris): 52.9 µM (≈ 15.6 µg/mL)

More lines, now with the values ahead:

MIC (Cryptococcus neoformans [9]): 1.94 µM (≈ 0.499 µg/mL)
MIC [10]: 1.94 µM (≈ 0.499 µg/mL)
SMILES: c1ccc(-c2csc(NN=C3CCCC3)n2)cc1

MIC (Cryptococcus neoformans [9]): 0.45 µM (≈ 0.131 µg/mL)
MIC [10]: 0.9 µM (≈ 0.262 µg/mL)
SMILES: COc1ccc(-c2csc(NN=C(C)CCO)n2)cc1

MIC (Cryptococcus neoformans [9]): 0.79 µM (≈ 0.249 µg/mL)
MIC [10]: 1.58 µM (≈ 0.498 µg/mL)
SMILES: COc1ccc(-c2csc(N/N=C/C3CCCCC3)n2)cc1

MIC (Candida albicans [11]): 1.95 µM (≈ 0.558 µg/mL)
MIC (Cryptococcus neoformans [9]): 0.12 µM (≈ 0.0344 µg/mL)
MIC [10]: 0.12 µM (≈ 0.0344 µg/mL)
SMILES: CC(CCO)=NNc1nc(-c2ccc(C#N)cc2)cs1

MIC (Cryptococcus neoformans [1]): 3.2 µM (≈ 0.984 µg/mL)
MIC [2]: 3.2 µM (≈ 0.984 µg/mL)
MIC (Candida albicans [3]): 3.2 µM (≈ 0.984 µg/mL)
MIC (Nakaseomyces glabratus): 50.8 µM (≈ 15.6 µg/mL)
MIC (Pichia kudriavzevii): 1.6 µM (≈ 0.492 µg/mL)
MIC (Candida parapsilosis): 1.6 µM (≈ 0.492 µg/mL)
MIC (Candida tropicalis): 6.3 µM (≈ 1.94 µg/mL)
MIC ([Candida] auris): 0.8 µM (≈ 0.246 µg/mL)
SMILES: C/C(CCC(=O)O)=N\Nc1nc(-c2ccc(F)cc2)cs1

Reference: ChEMBL document CHEMBL5375986, “Discovery of Lead 2-Thiazolylhydrazones with Broad-Spectrum and Potent Antifungal Activity” (J Med Chem, 2023)
